What was measured:
[1] = tested on: SQ20B; assay: Anti-proliferative activity of compound against human head/neck cancer SQ20B by standard MTT assay; type: functional, cell-based
[2] = tested on: U-87 MG; assay: Anti-proliferative activity of compound against human glioblastoma tumor cell line U87 by standard MTT assay; type: functional, cell-based, U-87MG ATCC
[3] = tested on: MDA-MB-231; assay: Anti-proliferative activity of compound against human breast cancer MDA-MB-231 by standard MTT assay; type: functional, cell-based
[4] = tested on: NALM-6; assay: Anti-proliferative activity of compound against human leukemia NALM-6 by standard MTT assay; type: functional, cell-based
[5] = tested on: PC-3; assay: Anti-proliferative activity of compound against human prostate cancer PC-3 by standard MTT assay; type: functional, cell-based; settings: PC-3, Prostate gland

IC50 [2] | IC50 [3] | IC50 [5] | SMILES | IC50 [1] | IC50 [4]
> 250 µM | > 250 µM | > 250 µM | OC[C@H]1CC[C@H]([C@@H](O)CO)O1 [WHI-259] | > 250 µM | > 250 µM
> 250 µM | > 250 µM | > 250 µM | C[C@@H](O)[C@H]1CC[C@H](CO)O1 [WHI-260] | > 250 µM | > 250 µM
107 µM | 7 µM | 171 µM | CCCCCCCCCCCC[C@@H](O)[C@H]1CC[C@H](CO)O1 [WHI-261] | 140 µM | 49 µM
> 250 µM | > 250 µM | > 250 µM | O=S(=O)(CC[C@@H](O)[C@H]1CC[C@H](COCc2ccccc2)O1)c1ccccc1 [WHI-262] | > 250 µM | > 250 µM

From ChEMBL document CHEMBL1132867, “A rationally designed anticancer drug targeting a unique binding cavity of tubulin” (Bioorg Med Chem Lett, 2000)
